Tests used:
[1] = tested on: bacterial isolates; test: microbe, parasite or virus in culture; type: cell-based
[2] = tested on: vancomycin / teicoplanin resistant enterococci; test: microbe, parasite or virus in culture; type: cell-based; conditions: for Vancomycin MIC + Peptide: in combination with the labelled peptide; for Peptide MIC + Vancomycin: in combination with vancomycin

For KWKSFIKKLTSAAKKVVTTAKPLISS [MBI 26], which FIC ([1]; peptide + Ceftriaxone, B. cepacia BC003) is on record?
The FIC was 0.50.

What about the FIC ([1]; peptide + Ceftriaxone, E. cloacae ECL014) of the same sequence?
The FIC was 0.50.

And the FIC ([1]; peptide + Ceftriaxone, E. cloacae ECL015)?
The FIC was 0.19.

What about the FIC ([1]; peptide + Ceftriaxone, K. pneumoniae KP003) of the same sequence?
Its FIC is 0.56.

And the FIC ([1]; peptide + Ceftriaxone, P. aeruginosa PA008)?
The FIC was 0.13.

And the FIC ([1]; peptide + Ceftriaxone, P. aeruginosa PA024)?
The FIC was 0.50.

And the FIC ([1]; peptide + Ceftriaxone, S. aureus SA025 MRSA)?
The FIC was 0.52.

And the FIC ([1]; peptide + Ceftriaxone, S. epidermidis SE007)?
The FIC was 0.27.

And the FIC ([1]; peptide + Ceftriaxone, S. epidermidis SE012)?
Its FIC is 0.27.

What about the FIC ([1]; peptide + Ceftriaxone, S. maltophilia SMA019) of the same sequence?
Its FIC is 0.50.

What about the FIC ([1]; peptide + Ceftriaxone, S. maltophilia SMA020) of the same sequence?
Its FIC is 0.38.

And the FIC ([1]; peptide + Ciprofloxacin, A. calcoaceticus 1)?
Its FIC is 0.51.

What about the FIC ([1]; peptide + Ciprofloxacin, A. calcoaceticus 6) of the same sequence?
The FIC was 0.50.

And the FIC ([1]; peptide + Ciprofloxacin, E. cloacae 13)?
The FIC was 0.27.

And the FIC ([1]; peptide + Ciprofloxacin, E. cloacae 15)?
Its FIC is 0.38.

What about the FIC ([1]; peptide + Ciprofloxacin, E. cloacae 16) of the same sequence?
The FIC was 0.38.

What about the FIC ([1]; peptide + Ciprofloxacin, P. aeruginosa 23) of the same sequence?
Its FIC is 0.53.

And the FIC ([1]; peptide + Ciprofloxacin, P. aeruginosa 24)?
The FIC was 0.53.

What about the FIC ([1]; peptide + Ciprofloxacin, P. aeruginosa PA41) of the same sequence?
Its FIC is 0.50.

And the FIC ([1]; peptide + Ciprofloxacin, P. aeruginosa PA77)?
The FIC was 0.56.

What about the FIC ([1]; peptide + Ciprofloxacin, S. aureus SA11) of the same sequence?
The FIC was 0.50.

And the FIC ([1]; peptide + Ciprofloxacin, S. maltophilia 34)?
Its FIC is 0.25.

And the FIC ([1]; peptide + Ciprofloxacin, S. maltophilia 35)?
The FIC was 0.50.

And the FIC ([1]; peptide + Gentamicin, A. baumannii ABI001)?
Its FIC is 0.50.

What about the FIC ([1]; peptide + Gentamicin, A. baumannii ABI002) of the same sequence?
The FIC was 0.53.

What about the FIC ([1]; peptide + Gentamicin, P. aeruginosa PA041) of the same sequence?
Its FIC is 0.63.

And the FIC ([1]; peptide + Gentamicin, S. maltophilia SMA016)?
The FIC was 0.25.

What about the FIC ([1]; peptide + Gentamicin, S. maltophilia SMA017) of the same sequence?
The FIC was 0.38.

What about the FIC ([1]; peptide + Mupirocin, E. coli ECO5) of the same sequence?
Its FIC is 0.43.

What about the FIC ([1]; peptide + Mupirocin, E. coli SBECO2) of the same sequence?
Its FIC is 0.16.

What about the FIC ([1]; peptide + Mupirocin, P. aeruginosa PA2) of the same sequence?
The FIC was 0.51.

What about the FIC ([1]; peptide + Mupirocin, P. aeruginosa PA4) of the same sequence?
Its FIC is 0.23.

And the FIC ([1]; peptide + Mupirocin, S. aureus SBSA4)?
Its FIC is 0.28.

And the FIC ([1]; peptide + Piperacillin, A. calcoaceticus 7)?
Its FIC is 0.25.

And the FIC ([1]; peptide + Piperacillin, A. calcoaceticus 8)?
The FIC was 0.19.

And the FIC ([1]; peptide + Piperacillin, E. cloacae 13)?
The FIC was 0.16.

What about the FIC ([1]; peptide + Piperacillin, H. influenzae 1) of the same sequence?
Its FIC is 0.53.

And the FIC ([1]; peptide + Piperacillin, H. influenzae 2)?
The FIC was 0.51.

And the FIC ([1]; peptide + Piperacillin, P. aeruginosa 7)?
Its FIC is 0.25.

And the FIC ([1]; peptide + Piperacillin, P. aeruginosa 23)?
Its FIC is 0.27.

And the FIC ([1]; peptide + Piperacillin, P. aeruginosa 28)?
The FIC was 0.14.

And the FIC ([1]; peptide + Piperacillin, P. aeruginosa 41)?
Its FIC is 0.53.

What about the FIC ([1]; peptide + Piperacillin, S. aureus 19 MRSA) of the same sequence?
The FIC was 0.16.

What about the FIC ([1]; peptide + Piperacillin, S. aureus SB3MRSA) of the same sequence?
Its FIC is 0.31.

And the FIC ([1]; peptide + Piperacillin, S. maltophilia 3)?
The FIC was 0.50.

What about the FIC ([1]; peptide + Piperacillin, S. maltophilia 34) of the same sequence?
Its FIC is 0.25.

What about the FIC ([1]; peptide + Piperacillin, S. maltophilia 35) of the same sequence?
The FIC was 0.26.

What about the FIC ([1]; peptide + Piperacillin, S. marcescens 1) of the same sequence?
Its FIC is 0.50.

What about the FIC ([1]; peptide + Tobramycin, S. epidermidis SE067) of the same sequence?
The FIC was 0.38.

What about the FIC ([1]; peptide + Tobramycin, S. epidermidis SE068) of the same sequence?
The FIC was 0.27.

What about the FIC ([1]; peptide + Tobramycin, S. maltophilia SMA029) of the same sequence?
Its FIC is 0.05.

What about the FIC ([1]; peptide + Tobramycin, S. maltophilia SMA030) of the same sequence?
The FIC was 0.05.

What about the FIC ([1]; peptide + Vancomycin, E. faecalis EFS005) of the same sequence?
Its FIC is 0.31.

What about the FIC ([1]; peptide + Vancomycin, E. faecalis EFS012) of the same sequence?
Its FIC is 0.07.

What about the FIC ([1]; peptide + Vancomycin, E. faecalis EFS013) of the same sequence?
Its FIC is 0.07.

And the FIC ([1]; peptide + Vancomycin, E. faecium EFM010)?
Its FIC is 0.31.

And the FIC ([1]; peptide + Vancomycin, E. faecium EFM011)?
Its FIC is 0.31.

What about the “Peptide MIC Alone” value ([2]; E. faecalis EFS005) of the same sequence?
Its value is greater than 128 µg/mL.

What about the “Peptide MIC Alone” value ([2]; E. faecalis EFS010) of the same sequence?
The value was 4 µg/mL.

And the “Peptide MIC Alone” value ([2]; E. faecalis EFS011)?
Its value is greater than 128 µg/mL.

What about the “MBI 26 Alone (MIC)” value ([2]; E. faecalis VanA strains) of the same sequence?
The value was 64 µg/mL.

What about the “MBI 26 + Teicoplanin (MIC)” value ([2]; E. faecalis VanA strains, in combination with teicoplanin) of the same sequence?
The value was 8 µg/mL.

And the “Amikacin MIC + Peptide” value ([2]; E. faecium EFM004)?
Its value is 8 µg/mL.

And the “Peptide MIC + Amikacin” value ([2]; E. faecium EFM004)?
The value was 32 µg/mL.

What about the “Peptide MIC Alone” value ([2]; E. faecium EFM004) of the same sequence?
Its value is 64 µg/mL.

What about the “Peptide MIC Alone” value ([2]; E. faecium EFM004, Amikacin section) of the same sequence?
Its value is 64 µg/mL.

And the “Peptide MIC Alone” value ([2]; E. faecium EFM010)?
Its value is 32 µg/mL.

And the “Peptide MIC Alone” value ([2]; E. faecium EFM011)?
The value was 32 µg/mL.

And the “Amikacin MIC + Peptide” value ([2]; E. faecium EFM020)?
The value was 8 µg/mL.

And the “Peptide MIC + Amikacin” value ([2]; E. faecium EFM020)?
The value was 32 µg/mL.

And the “Peptide MIC Alone” value ([2]; E. faecium EFM020, Amikacin section)?
The value was 64 µg/mL.

And the FIC ([2]; Vancomycin + peptide, E. faecalis EFS005)?
The FIC was 0.31.

And the FIC ([2]; Vancomycin + peptide, E. faecalis EFS010)?
Its FIC is 0.27.

And the FIC ([2]; Vancomycin + peptide, E. faecalis EFS011)?
The FIC was 0.25.

And the FIC ([2]; Vancomycin + peptide, E. faecium EFM004)?
Its FIC is 0.25.

What about the FIC ([2]; Vancomycin + peptide, E. faecium EFM010) of the same sequence?
The FIC was 0.53.

What about the FIC ([2]; Vancomycin + peptide, E. faecium EFM011) of the same sequence?
The FIC was 0.31.

And the “Vancomycin MIC + Peptide” value ([2]; E. faecalis EFS005)?
Its value is 4 µg/mL.

What about the “Vancomycin MIC + Peptide” value ([2]; E. faecalis EFS010) of the same sequence?
Its value is 1 µg/mL.

What about the “Vancomycin MIC + Peptide” value ([2]; E. faecalis EFS011) of the same sequence?
The value was 2 µg/mL.

What about the “Vancomycin MIC + Peptide” value ([2]; E. faecium EFM004) of the same sequence?
Its value is 0.125 µg/mL.

What about the “Vancomycin MIC + Peptide” value ([2]; E. faecium EFM010) of the same sequence?
Its value is 1 µg/mL.

What about the “Vancomycin MIC + Peptide” value ([2]; E. faecium EFM011) of the same sequence?
The value was 2 µg/mL.

What about the “Peptide MIC + Vancomycin” value ([2]; E. faecalis EFS005) of the same sequence?
The value was 16 µg/mL.

What about the “Peptide MIC + Vancomycin” value ([2]; E. faecalis EFS010) of the same sequence?
The value was 1 µg/mL.

And the “Peptide MIC + Vancomycin” value ([2]; E. faecalis EFS011)?
Its value is 32 µg/mL.

And the “Peptide MIC + Vancomycin” value ([2]; E. faecium EFM004)?
The value was 16 µg/mL.

What about the “Peptide MIC + Vancomycin” value ([2]; E. faecium EFM010) of the same sequence?
The value was 16 µg/mL.

And the “Peptide MIC + Vancomycin” value ([2]; E. faecium EFM011)?
The value was 8 µg/mL.

What about the FIC ([2]; peptide + Amikacin, E. faecium EFM004) of the same sequence?
The FIC was 0.56.

What about the FIC ([2]; peptide + Amikacin, E. faecium EFM020) of the same sequence?
The FIC was 0.75.

What about the “susceptibility of teicoplanin resistant enterococci to teicoplanin” value ([2]; teicoplanin in combination with peptide) of the same sequence?
Its value is “become susceptible to teicoplanin”.

What about the “susceptibility of vancomycin resistant enterococci (VRE) to vancomycin” value ([2]; vancomycin in combination with peptide) of the same sequence?
Its value is “become susceptible to vancomycin”.

Reference: patent publication US20020035061A1, “COMPOSITIONS AND METHODS FOR TREATING INFECTIONS USING CATIONIC PEPTIDES ALONE OR IN COMBINATION WITH ANTIBIOTICS” (priority 1996, published 2002)
